Measured values from ChEMBL document CHEMBL1255511, “Design of a series of bicyclic HIV-1 integrase inhibitors. Part 1: selection of the scaffold” (Bioorg Med Chem Lett, 2010).

Columns and labels:
[1] = system: Human immunodeficiency virus 1; assay: Antiviral activity against HIV1 NL4-3 infected in human Hut78 cells assessed as inhibition of viral replication in presence of 10 % fetal bovine serum; assay type: functional, organism-based; conditions: Human immunodeficiency virus 1, NL4-3, HuT78
[2] = system: Human immunodeficiency virus 1; assay: Antiviral activity against HIV1 NL4-3 infected in human Hut78 cells assessed as inhibition of viral replication in 50 % normal human serum; assay type: functional, organism-based; conditions: Human immunodeficiency virus 1, NL4-3, HuT78, Serum
[3] = molecular target: Human immunodeficiency virus type 1 integrase (Human immunodeficiency virus 1, UniProt Q7ZJM1); assay: Inhibition of HIV1 integrase 3'-strand transfer
Sequence of Human immunodeficiency virus type 1 integrase (Q7ZJM1 whole entry): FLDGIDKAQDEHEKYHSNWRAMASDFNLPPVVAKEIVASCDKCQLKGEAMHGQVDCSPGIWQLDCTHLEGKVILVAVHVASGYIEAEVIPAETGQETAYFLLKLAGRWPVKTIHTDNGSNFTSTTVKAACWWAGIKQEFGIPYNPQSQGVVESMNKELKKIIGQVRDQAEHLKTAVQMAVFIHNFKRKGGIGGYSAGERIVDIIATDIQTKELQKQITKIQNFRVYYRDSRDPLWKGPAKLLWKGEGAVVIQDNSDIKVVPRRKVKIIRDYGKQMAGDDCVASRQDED

SMILES | EC50 [1] [nM] | EC50 [2] [nM] | IC50 [3] [nM]
CCN(C(=O)C(=O)N1CCOCC1)c1cccn2c(=O)c(O)c(C(=O)NCc3ccc(F)cc3)nc12 | 31 |  | 
CN1CCN(c2cc(N(C)S(C)(=O)=O)c3nc(C(=O)NCc4ccc(F)cc4)c(O)c(=O)n3c2)CC1 | 19.8 | 61.5 | 
O=C(NCc1ccc(F)cc1)c1nc2c(Br)cc(N3CCOCC3)cn2c(=O)c1O | 7 | 70 | 130
Cn1ccn2c(=O)c(O)c(C(=O)NCc3ccc(F)cc3)nc12 |  |  | 76.8
O=C(NCc1ccc(F)cc1)c1nc2c(N3CCCS3(=O)=O)cc(N3CCNCC3)cn2c(=O)c1O | 280 | 43 | 
CC(=O)N1CCN(c2cc(Br)c3nc(C(=O)NCc4ccc(F)cc4)c(O)c(=O)n3c2)CC1 | 8 | 40 | 110
N#Cc1c[nH]n2c(=O)c(O)c(C(=O)NCc3ccc(F)cc3)nc12 |  |  | 13700
O=C(NCc1ccc(F)cc1)c1nc2c(I)cc(N3CCOCC3)cn2c(=O)c1O | 6 | 50 | 85
COc1cccc2c1sc1nc(C(=O)NCc3ccc(F)cc3)c(O)c(=O)n12 |  |  | > 50000
Cn1c2ccccc2n2c(=O)c(O)c(C(=O)NCc3ccc(F)cc3)nc12 |  |  | 20200
COc1cc(N2CCOCC2)cn2c(=O)c(O)c(C(=O)NCc3ccc(F)cc3)nc12 | 9.5 | 1400 | 170
O=C(NCc1ccc(F)cc1)c1nc2ccc(Br)cn2c(=O)c1O |  |  | 445
O=C(NCc1ccc(F)cc1)c1nc2cc(-c3ccccc3)[nH]n2c(=O)c1O |  |  | > 100000
O=C(NCc1ccc(F)cc1)c1nc2c3ccccc3[nH]n2c(=O)c1O |  |  | > 10000
O=C(NCc1ccc(F)cc1)c1nc2ccc(N3CCOCC3)cn2c(=O)c1O | 215 |  | 80
Cc1cc2nc(C(=O)NCc3ccc(F)cc3)c(O)c(=O)n2o1 |  |  | 5100
CN1CCN(c2cc(N3CCN(C)S3(=O)=O)c3nc(C(=O)NCc4ccc(F)cc4)c(O)c(=O)n3c2)CC1 | 3 | 4 | 
O=C(NCc1ccc(F)cc1)c1nc2[nH]c3ccccc3n2c(=O)c1O |  |  | > 100000

SMILES | EC50 [1] [nM] | EC50 [2] [nM] | IC50 [3] [nM]
O=C(NCc1ccc(F)cc1)c1nc2sccn2c(=O)c1O |  |  | 33200
O=C(NCc1ccc(F)cc1)c1nc2c(OCc3ccc(F)cc3)cc(N3CCOCC3)cn2c(=O)c1O | 80 |  | 275
O=C(NCc1ccc(F)cc1)c1nc2sc(N3CCOCC3)cn2c(=O)c1O |  |  | 1130
O=C(NCc1cc(Cl)cc(Cl)c1)c1nc2c(N3CCCS3(=O)=O)cc(N3CCOCC3)cn2c(=O)c1O | 0.2 | 43 | 130
Cc1cn2c(=O)c(O)c(C(=O)NCc3ccc(F)cc3)nc2s1 |  |  | 4250
O=C(NCc1ccc(F)cc1)c1nc2ccccn2c(=O)c1O |  |  | 587
Cn1c2ccccc2c2nc(C(=O)NCc3ccc(F)cc3)c(O)c(=O)n21 |  |  | 626
O=C(NCc1ccc(F)cc1)c1nc2c(N3CCOCC3)cc(N3CCOCC3)cn2c(=O)c1O | 730 | 1550 | 755
O=C(NCc1ccc(F)cc1)c1nc2c(N3CCCS3(=O)=O)cc(N3CCOCC3)cn2c(=O)c1O | 10.3 | 18 | 195
O=C(NCc1ccc(F)cc1)c1nc2c(Cl)cc(N3CCOCC3)cn2c(=O)c1O | 11 | 158 | 135
O=C(NCc1ccc(F)cc1)c1nc2sc3ccccc3n2c(=O)c1O |  |  | > 30000
O=C(NCc1ccc(F)cc1)c1nc2c(OCC3CC3)cc(N3CCOCC3)cn2c(=O)c1O | 12 | 590 | 429
O=C(NCc1ccc(F)cc1)c1nc2c3ccccc3on2c(=O)c1O |  |  | > 10000
CC(C)Oc1cc(N2CCOCC2)cn2c(=O)c(O)c(C(=O)NCc3ccc(F)cc3)nc12 | 5 |  | 245
O=C(NCc1ccc(F)cc1)c1nc2c3ccc(N4CCOCC4)cc3on2c(=O)c1O |  |  | > 10000
Cc1nnc(C(=O)NC(C)(C)c2nc(C(=O)NCc3ccc(F)cc3)c(O)c(=O)n2C)o1 [RALTEGRAVIR POTASSIUM] | 9.4 | 7.1 | 
Cn1ccc2nc(C(=O)NCc3ccc(F)cc3)c(O)c(=O)n21 |  |  | > 30000
